Data from paper PMC2891831, “Insight into the Mechanisms of Adenovirus Capsid Disassembly from Studies of Defensin Neutralization” (PLoS Pathogens, 2010).

Tests used:
[1] = system: HAdV-5; settings: low micromolar concentrations; ref [13]; cited from earlier work
[2] = system: HAdV-16; assay: Infection assay (hexon staining), HAdV-16; assay type: cell-based, human adenovirus; settings: 15 µM HNP1, A549 cells, vs. no defensin
Protocol: (§1) To determine whether sensitivity to α-defensins is a general property of HAdVs, serotypes representative of HAdV species A–F were tested for infectivity in the presence of 15 µM HD5 or HNP1 (Figure 1). Wild type HAdVs rather than vectors were used for these studies, and infectivity was assessed by staining for hexon production. […] These studies indicate that sensitivity to α-defensins is species specific. In addition, particular HAdV serotypes are not equally sensitive to all defensins, indicating defensin sequence specificity as well.
(§2) Figure 1 Sensitivity to neutralization by alpha-defensins is AdV species specific. HAdVs were incubated with 15 µM HD5 (A) or HNP1 (B) and assessed for infectivity on A549 cells. Data are the mean of the percent infectivity compared to control cells infected with each virus in the absence of defensin for at least three independent experiments ± SD. The upper limit for quantification of this assay is 200%. […]
(§3) Prior to use in this assay, each virus stock was titrated on A549 cells. […] In parallel, wells were infected with two-fold serial dilutions of each virus to establish a standard curve for quantification with an upper limit of 200%. […] Total well fluorescence above background was quantified with ImageJ software. For each virus, samples were quantified by nonlinear regression against the standard curve using Prism software (GraphPad Software, Inc., La Jolla, CA).

[3] = system: HAdV-3; assay: Infection assay (hexon staining), HAdV-3; assay type: cell-based, human adenovirus; settings: 15 µM HNP1, A549 cells, vs. no defensin
Protocol: as §1, §2, §3

[4] = system: HAdV-12; assay: Infection assay (hexon staining), HAdV-12; assay type: cell-based, human adenovirus; settings: 15 µM HNP1, A549 cells, vs. no defensin
Protocol: as §1, §2, §3

[5] = system: Serotypes sensitive to HD5; assay: Infection assay (hexon staining), serotypes sensitive to HD5; assay type: cell-based, human adenovirus; settings: 15 µM HNP1, A549 cells, vs. no defensin
Protocol: as §1, §2, §3

[6] = system: HAdV-14; assay: Infection assay (hexon staining), HAdV-14; assay type: cell-based, human adenovirus; settings: 15 µM HNP1, A549 cells, vs. no defensin
Protocol: as §1, §2, §3

[7] = system: HAdV-4 (species E); assay: Infection assay (hexon staining), HAdV-4; assay type: cell-based, human adenovirus; settings: 15 µM HD5 or HNP1, A549 cells, hexon staining at ~48 h, vs. no defensin
Protocol: as §1, §2, §3

HNP1: human alpha-defensin; synthetic, obtained from Peptides International
inhibition of HAdV-5 infection [1]: significantly inhibit HAdV-5 infection at low micromolar concentrations
inhibition of infection [2]: only modest inhibition
inhibition of infection [3]: only modest inhibition
inhibition of infection [4]: only modest inhibition
sensitivity to neutralization (infectivity) [5]: generally sensitive
inhibition of infection [6]: only modest inhibition
sensitivity to neutralization (infectivity) [7]: resistant
